Measured values published in patent publication EP1566447A1, “Glimepiride- and insulin-induced glycosylphosphatidylinositol-specific phospholipase C regulation” (priority 2004, dated 2005).
“Also recorded” adds a separate entry of the source.

Tests used:
caveolin-1 = assay: dissociation of signaling proteins from caveolin (caveolin-1 immunoprecipitates); assay type: cell-based, rat
Protocol: Solubilized DIGs (see above, 5-20 µg protein) were precleared by incubation with protein A/G-Sepharose and subsequent centrifugation (10,000xg, 5 min). The supernatant was incubated with anti-caveolin-1 antibodies (1:1000) preadsorbed on protein A/G-Sepharose in 1 ml of 10 mM Tris/HCl (pH 7.4), 150 mM NaCl, 1 % TX-100 for 1 h at 4°C. The immune complexes were washed twice with the same buffer and then twice with buffer lacking TX-1 00 and finally subjected to SDS-PAGE performed in the absence of β-mercaptoethanol. The recovery of immunoprecipitated caveolin was normalized by homologous immunoblotting with anti-caveolin antibodies of the same blot following stripping of the membrane.
Polypeptides separated by SDS-PAGE were transferred to polyvinylidene difluoride membranes using the semidry procedure as described in "Müller, G. et al., (2001) Mol. Cell. Biol. 21: 4553-4567". Washed membranes were incubated anti-caveolin-1 (1:2000), anti-pp59^Lyn (1:1250), anti-aP (1:500), anti-5'-Nuc (1:750) and anti-IRS-1 (1:2000) antibodies for 4 h at 15°C. Washed membranes were incubated with horseradish peroxidase-coupled secondary goat anti-mouse (1:2000) or goat anti-rabbit IgG (1:4000) antibodies. Labeled proteins were visualized by enhanced chemiluminescence.
Of signaling proteins from caveolin. […]

[1] = stability of the compound in solvents and as a solid; assay type: physicochemical
Protocol: As starting material, racemic 1,4,5,6-tetra-O-benzyl-myo-inositol (thereinafter: compound 1) was prepared by a procedure as disclosed in "Zhai, H.-X. et al. (1995) Tetrahedron Lett. 36: 7403-7406". Compound 1 was then phosphorylated with dodecylphosphonic dichloride in the presence of triethylamine and dimethyl-aminopyridine to yield tetra-O-benzyl-myo-inositol-1,2-cyclo-dodecylphosphonic acid (thereinafter: compound 2). By catalytic hydrogenation with 10% Pd on charcoal compound 2 was debenzylated to myo-inositol-1,2-cyclo-dodecylphosphonic acid (thereinafter: compound 3 or GPI-2350) as a mixture of diastereomeres. For synthesis of compound 2 (Fig. 1), 1 g (1.8 mmol) of compound 1 was dissolved in 60 ml of methylene chloride and 1 ml of triethylamine, 200 mg dimethyl-aminopyridine and 1 g ([…]) of dodecylphosphonic dichloride were added. This reaction solution was allowed to stand (45 min, room temperature). Then 50 ml of ethyl acetate were added and the mixture was filtrated on silical gel. After concentration of the solvent, the residue was purified by flash chromatography (n-heptane/ethyl acetate, 1/1, by vol.). Yield of compound 2: 580 mg (43 %) of a white amorphous solid. TLC: n-heptane/ethyl acetate (1/1, by vol.), Rf = 0.7. MS: (M + Li)^+ = 761.4, calculated […], M = 754.9. […] MS: (M + Li)^+ = 401.2, calculated C18H35O7P, M = 394.4.

bovine AChE = target: T1, bovine AChE (Bos taurus, UniProt P23795); assay: selectivity: AChE activity; assay type: biochemical; conditions: 50 µM
T1 construct: solubilized and partially purified bovine erythrocyte AChE; from tissue; host or cells: bovine erythrocytes
Protocol: Electroporation was performed as described in "Müller, G. et al., (2000) Mol. Cell. Biol. 20: 4708-4723". Lipolysis was determined as release of glycerol or fluorescent NBD-FA from prelabeled and isoproterenol-stimulated adipocytes as described in "Müller, G. et al., (2003) Biochimie 85: 1245-1256". Gce1 was detected by photolabeling of solubilized plasma membranes or hc/IcDIGs (10-50 µg protein) with 8-N3-[^32P]cAMP and subsequent phosphorimaging as described in "Müller, G. et al., (1994) Biochemistry 33: 12149-12159". 5'-Nuc, aP and AChE activities were measured according to "Eliakim, R. et al., (1990) Biochim. Biophys. Acta 1355: 293-302". Protein was determined using the BCA protein determination kit from Pierce (Rockford, IL) and BSA as calibration standard. SDS-PAGE was performed using precast gels (Novex, San Diego, CA; 10 % Bis-Tris resolving gel, morpholinopropanesulfonic acid-SDS running buffer). Lumiimages were evaluated on a Lumilmager using Lumilmager software (Roche Diagnostics). Phosphor- and fluorescence images were processed and quantified using the Storm 860 Phosphorlmager system (Molecular Dynamics, Gelsenkirchen, Germany). Figures were constructed using the Adobe Photoshop software (Adobe Systems, Mountain View, CA).
Fig. 3: Selectivity of GPI-2350. […]

T1 sequence (P23795 other isoform, or with tags, fused parts or gaps): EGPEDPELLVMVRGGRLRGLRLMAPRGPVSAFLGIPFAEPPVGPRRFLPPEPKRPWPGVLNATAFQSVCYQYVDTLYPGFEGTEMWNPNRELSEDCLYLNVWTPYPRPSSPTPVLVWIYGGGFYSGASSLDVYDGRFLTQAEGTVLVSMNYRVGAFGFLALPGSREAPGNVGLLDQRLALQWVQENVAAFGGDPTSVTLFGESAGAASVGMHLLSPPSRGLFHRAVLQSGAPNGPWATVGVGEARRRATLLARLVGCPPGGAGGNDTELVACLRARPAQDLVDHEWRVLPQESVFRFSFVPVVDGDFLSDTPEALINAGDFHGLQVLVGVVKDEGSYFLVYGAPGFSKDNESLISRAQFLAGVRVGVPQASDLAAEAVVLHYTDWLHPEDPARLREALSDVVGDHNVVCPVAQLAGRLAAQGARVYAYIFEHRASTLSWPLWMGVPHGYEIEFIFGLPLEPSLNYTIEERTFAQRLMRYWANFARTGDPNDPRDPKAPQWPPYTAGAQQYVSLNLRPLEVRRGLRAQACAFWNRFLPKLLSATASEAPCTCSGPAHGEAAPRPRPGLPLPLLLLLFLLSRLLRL

In the case of `CCCCCCCCCCCCP1(=O)O[C@@H]2[C@H](O)[C@@H](O)[C@H](O)[C@@H](O)[C@@H]2O1` (mixture of isomers) [GPI-2350, myo-inositol-1,2-cyclo-dodecylphosphonic acid], the “effect on induced dissociation of pp59^Lyn and Gce1 from caveolin” value (caveolin-1; 50 µM, Fig. 6 Panel A) is reported as “almost complete blockade; also recorded: completely abrogated”, the IC50 (caveolin-1; abrogation of insulin- and glimepiride-induced losses, Fig. 6 Panel B) is reported as 5 to 10 µM and the “stability in acidic vs. basic solvents” value [1] is reported as “less stable in acidic than basic solvents”. For the same compound, the stability in methanol ([1]; methanol) was “for days” and the “effect on AChE activity” value (bovine AChE) was “not significantly affected”.
